In paper doi:10.1101/2020.07.01.182642v1 (biorxiv, 2020):

How the values were obtained:
CLK1 (full-length) [1] = target: CLK1 (full-length) (Homo sapiens, UniProt P49759, V324A); assay: cell-based
CLK3 (R134-T484) [2] = target: T1, CLK3 (R134-T484) (Homo sapiens, UniProt P49761, A319V); settings: binder
CLK3 (R134-T484) [3] = target: T2, CLK3 (R134-T484) (Homo sapiens, UniProt P49761); settings: binder
CLK1 (H148-I484) [4] = target: T3, CLK1 (H148-I484) (Homo sapiens, UniProt P49759); settings: binder
CLK1 = CLK1 (Homo sapiens, UniProt P49759); settings: binder
CLK3 = CLK3 (Homo sapiens, UniProt P49761); settings: binder
CLK3 (R134-T484) [5] = target: T1, CLK3 (R134-T484); assay: Omnia kinase assay; type: biochemical
CLK1 (H148-I484) [6] = target: CLK1 (H148-I484) (Homo sapiens, UniProt P49759, V324A); settings: binder
CLK3 (R134-T484) [7] = target: T2, CLK3 (R134-T484); settings: binder; remark: listed apart in the source
CLK1 (H148-I484) [8] = target: T3, CLK1 (H148-I484); settings: binder; remark: listed apart in the source
CLK1 (full-length) [9] = target: CLK1 (full-length) (Homo sapiens, UniProt P49759); assay: cell-based
Sequence of CLK1 (full-length) (Homo sapiens, UniProt P49759) (P49759 whole entry): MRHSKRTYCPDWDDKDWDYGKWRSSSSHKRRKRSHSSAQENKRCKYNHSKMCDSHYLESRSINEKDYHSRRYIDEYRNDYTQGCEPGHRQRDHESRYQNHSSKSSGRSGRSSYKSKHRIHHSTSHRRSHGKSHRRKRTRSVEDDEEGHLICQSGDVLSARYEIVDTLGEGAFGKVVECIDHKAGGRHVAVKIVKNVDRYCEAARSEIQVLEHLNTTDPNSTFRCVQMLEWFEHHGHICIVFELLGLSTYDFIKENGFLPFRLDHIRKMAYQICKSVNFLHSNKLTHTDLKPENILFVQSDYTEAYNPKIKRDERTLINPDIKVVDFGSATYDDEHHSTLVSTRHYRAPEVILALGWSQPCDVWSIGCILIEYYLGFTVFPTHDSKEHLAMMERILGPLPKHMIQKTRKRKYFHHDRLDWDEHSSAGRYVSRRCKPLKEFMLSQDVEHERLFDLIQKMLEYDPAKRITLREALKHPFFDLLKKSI

T2 sequence (P49761 134-484): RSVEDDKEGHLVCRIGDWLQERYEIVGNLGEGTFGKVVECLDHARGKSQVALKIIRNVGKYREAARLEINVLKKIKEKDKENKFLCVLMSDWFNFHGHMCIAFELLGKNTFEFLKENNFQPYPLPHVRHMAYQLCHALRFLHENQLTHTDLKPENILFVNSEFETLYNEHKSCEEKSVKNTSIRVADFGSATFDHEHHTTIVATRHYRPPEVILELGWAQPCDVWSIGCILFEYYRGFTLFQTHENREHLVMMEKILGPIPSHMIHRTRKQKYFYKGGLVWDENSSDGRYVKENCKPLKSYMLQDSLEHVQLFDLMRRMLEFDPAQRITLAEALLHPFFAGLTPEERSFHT
Sequence of CLK1 (H148-I484) (Homo sapiens, UniProt P49759, V324A) (P49759 148-484 V324A): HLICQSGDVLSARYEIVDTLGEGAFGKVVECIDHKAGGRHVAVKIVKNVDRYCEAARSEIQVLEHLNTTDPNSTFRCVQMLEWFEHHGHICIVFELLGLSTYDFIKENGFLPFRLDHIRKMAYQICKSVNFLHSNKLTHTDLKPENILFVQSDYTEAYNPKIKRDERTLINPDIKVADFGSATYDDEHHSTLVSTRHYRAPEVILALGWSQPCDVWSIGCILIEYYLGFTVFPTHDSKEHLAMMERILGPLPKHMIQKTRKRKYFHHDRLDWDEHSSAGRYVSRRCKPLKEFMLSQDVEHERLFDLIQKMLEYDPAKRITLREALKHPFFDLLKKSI
Sequence of CLK1 (full-length) (Homo sapiens, UniProt P49759, V324A) (P49759 whole entry V324A): as the sequence (P49759 whole entry) above, with V324A counted along it
T3 sequence (P49759 148-484): as the sequence (P49759 148-484 V324A) above, with A177V counted along it
T1 sequence (P49761 134-484 A319V): as the sequence (P49761 134-484) above, with A186V counted along it
Sequence of CLK1 (P49759 whole entry): as the sequence (P49759 whole entry) above
Sequence of CLK3 (P49761 whole entry): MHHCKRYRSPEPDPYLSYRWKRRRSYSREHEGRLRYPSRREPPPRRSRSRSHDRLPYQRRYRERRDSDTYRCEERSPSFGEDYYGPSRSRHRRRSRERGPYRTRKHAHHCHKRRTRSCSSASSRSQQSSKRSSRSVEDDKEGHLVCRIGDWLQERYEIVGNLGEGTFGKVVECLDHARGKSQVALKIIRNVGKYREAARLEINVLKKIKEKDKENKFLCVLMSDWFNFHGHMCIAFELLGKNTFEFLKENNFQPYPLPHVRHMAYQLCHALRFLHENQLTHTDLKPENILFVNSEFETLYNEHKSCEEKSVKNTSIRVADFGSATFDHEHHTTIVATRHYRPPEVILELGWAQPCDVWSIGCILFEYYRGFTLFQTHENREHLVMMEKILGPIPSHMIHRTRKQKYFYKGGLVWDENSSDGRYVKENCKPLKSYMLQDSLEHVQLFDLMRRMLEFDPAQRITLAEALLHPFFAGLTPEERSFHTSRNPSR

Compound	Ki (CLK1 (full-length) [1]) [nM]	ΔTm A319V CLK3 (CLK3 (R134-T484) [2]) [°C]	ΔTm wild type CLK3 (CLK3 (R134-T484) [3]) [°C]	ΔTm wild type CLK1 (CLK1 (H148-I484) [4]) [°C]	ΔTm V324A CLK1 (CLK1 (H148-I484) [6]) [°C]	also measured
Cn1c2c(c3ccc(Cl)c(Cl)c31)C(C#N)C1(CCNCC1)NC2=O (racemic) [compound 3, KH-CARB13]	2810 ± 670	5.8	1.2	7.4		ΔTm (°C) 3 (CLK1): 7.0 degC; ΔTm (°C) 3 (CLK3): 2.2 degC; Ki (CLK3 (R134-T484) [5]): 850 ± 300 nM
Cn1cc(-c2ccc3occ(-c4cccc(-c5ccncc5)c4)c3n2)cn1 [compound 5, MU1210]		8.27	1.5	9.3	5.94	
CN[C@@H]1C[C@H]2O[C@@](C)([C@@H]1OC)n1c3ccccc3c3c4c(c5c6ccccc6n2c5c31)C(=O)NC4 [compound 6, staurosporine]						wild type CLK3 (CLK3 (R134-T484) [7]): 4.7 °C
CCOC(=O)c1c(/C(C#N)=C\N)c2ccc(Cl)c(Cl)c2n1C [compound 7, KH-CB19]						wild type CLK1 (CLK1 (H148-I484) [8]): 15.0 °C; wild type CLK3 (CLK3 (R134-T484) [7]): 8.6 °C
CCOc1ccc2c(-c3ccnc(Nc4cc(OC)cc(C(F)(F)F)c4)n3)cnn2n1 [compound 8, GW807982X]	3930 ± 1100					Ki (CLK1 (full-length) [9]): 36 ± 20 nM; wild type CLK1 (CLK1 (H148-I484) [8]): 9 °C; wild type CLK3 (CLK3 (R134-T484) [7]): 2.0 °C
CC(=O)c1cccc(-c2cnc3ccc(NC(CO)C(C)C)nn23)c1 (stereo not shown) [compound 9, K00518]	2640 ± 1800					Ki (CLK1 (full-length) [9]): 943 ± 640 nM
CC(=O)c1cccc(-c2cnc3ccc(NC(CO)C(C)C)nn23)c1 (stereo not shown) [compound 9]		8.6	1.8	6.8	3.9	
CN1CCN(C(=O)C(C)(C)c2ccc(C(=O)Nc3cn4cc(-c5ccncc5)ccc4n3)cc2)CC1 [compound 10, T3-CLK]	2.3 ± 0.1					Ki (CLK1 (full-length) [9]): 1 ± 0.1 nM
CN1CCN(C(=O)C(C)(C)c2ccc(C(=O)Nc3cn4cc(-c5ccncc5)ccc4n3)cc2)CC1 [compound 10]		17.3	13.7	18.7	13.7	
O=C1NCc2ccc3c(-c4cccc(Cl)c4)c[nH]c3c21 [compound 11, KuWal151]	878 ± 46					Ki (CLK1 (full-length) [9]): 228 ± 80 nM
O=C1NCc2ccc3c(-c4cccc(Cl)c4)c[nH]c3c21 [compound 11]		4.7	1.7	9.4	5.1	
O=c1c2c(ccc3nc(-c4cccnc4)sc32)ncn1C1CC1 [compound 12, FC162]	5450 ± 790					Ki (CLK1 (full-length) [9]): 1860 ± 1200 nM
O=c1c2c(ccc3nc(-c4cccnc4)sc32)ncn1C1CC1 [compound 12]		5.5	3.6	9.5	3.0	
COC(=N)c1nc2ccc3ncnc(Nc4ccc(OC)cc4F)c3c2s1 [compound 13, ETH1610]		9.2	3.4	10.3	3.8	
Cn1cc(-c2ccc3occ(-c4cccc(Oc5ccccc5)c4)c3n2)cn1 [compound 14, VN412]		10.1	4.8	12.3	7.8	
CN1CCC2(CC1)NC(=O)c1c(c3ccc(Cl)c(Cl)c3n1C)C2C#N (stereo not shown) [compound 16, KH-CARB10]		5.0	1.1	6.1	1.8	
Nc1ncnc2c1c(I)cn2C1OC(CO)C(O)C1O (stereo not shown) [compound 18, iodotubercidin]		14.1	7.9	13.1	9.7	
